Source: patent US20150099721A1, “TREATING CANCER WITH HSP90 INHIBITORY COMPOUNDS” (Synta Pharmaceuticals Corp., priority 2012, published 2015)
“Also recorded” adds a separate entry of the source.

Key:
[1] = tested on: SLC34A2-ROS expressing HCC78 NSCLC cells; experiment: Cell viability (Cell Titer-Glo) in HCC78 cells; assay type: cell-based, human; details: for IC50: Homo sapiens, 72 hr exposure (FIG. 1A), read-out: IC50, loss of HCC78 cell viability; for cells killed by single agent: drug on its own (FIG. 1C)
Description: (§1) Human HCC78 NSCLC cells and human TPC-1 thyroid cancer cells were obtained from Dr. Steve Morris (St. Jude's) and grown in RPMI in the presence of fetal bovine serum (10%), 2 mM L-glutamine and antibiotics (100 IU/ml penicillin and 100 μg/ml streptomycin) purchased from Sigma Aldrich. Cells were maintained at 37° C., 5% CO2 atmosphere.
(§2) Cell viability was measured using the Cell Titer-Glo assay (Promega). In brief, cells were plated in 96-well plates in triplicate at optimal seeding density (determined empirically for each cell line) and incubated at 37° C., 5% CO2 atmosphere for 24 hr prior to the addition of drug or vehicle (0.3% DMSO) to the culture medium. At the end of the assay, Cell Titer-Glow was added to the wells per manufactures recommendation, shaken for two minutes and incubated for 10 minutes at room temperature. Luminescence (0.1 sec) was measured with a Victor II microplate reader (Perkin Elmer) and the resulting data were used to calculate cell viability, normalized to vehicle control.
(§3) Chromosomal rearrangements involving ROS kinase have been reported in several tumor types, including non-small cell lung cancer (NSCLC) and glioblastoma. […] See, e.g., Ting-Lei Gu et al, PLoS One. 2011; 6(1):e15640. To determine if inhibition of Hsp90 affects the activity of ROS fusion kinases and viability of cells driven by such fusions, SLC34A2-ROS expressing HCC78 NSCLC cells were treated with ganetespib and both viability and protein activity was assessed. […] See, e.g., Chenguang Li et al, PLoS One. 2011; 6(11):e28204. […] To determine if ganetespib affects the constitutive activity of ROS, HCC78 cells were treated with ganetespib for 24 hr and the phosphorylation of ROS was assayed by Western blot. […] In addition to SLC34A2-ROS, other ROS chimeras have been identified including CD74-ROS and FIG-ROS. Show in FIG. 1D, Ba/F3 cells stably expressing either CD74-ROS or FIG-ROS were treated with ganetespib for 24 hr and activity of ROS was determined by Western blot.

[2] = tested on: ROS (SLC34A2-ROS) in HCC78 cells; experiment: Western blot of ROS phosphorylation in HCC78 cells; assay type: cell-based, human; details: 24 hr, 250 nM (FIG. 1B)
Source text: (§4) Cells, treated with compound for 24 hr, were lysed in RIPA buffer (CST, Danvers, Mass., USA) on ice and clarified by centrifugation. Equal amounts of proteins were resolved by SDS-PAGE and immunoblotted with indicated antibodies (CST). The antigen-antibody complex was visualized and quantitated using an Odyssey system (LI-COR, Lincoln, Nebr., USA).
as §3

CD74-ROS = experiment: Western blot of ROS phosphorylation in Ba/F3 cells expressing CD74-ROS; assay type: cell-based; details: 24 hr, 100 nM (FIG. 1D)
Source text: as §4, §3

FIG-ROS = experiment: Western blot of ROS phosphorylation in Ba/F3 cells expressing FIG-ROS; assay type: cell-based; details: 24 hr, 100 nM (FIG. 1D)
Source text: as §4, §3

CCDC6-RET = experiment: Western blot in TPC-1 cells (CCDC6-RET, ERK, PARP); assay type: cell-based, human; details: 24 hr (FIG. 2)
Description: as §1, §4
(§5) Recently, fusions of the RET kinase have also been detected in NSCLC. See, e.g., Fei Li et al, Cell Research (2012), 1-4. One such fusion, CCDC6-RET, was determined to be present in ˜1% of lung adenocarcinomas from never smokers. To investigate whether ganetespib modulates the activity and stability of RET fusions, CCDC6-RET expressing TPC-1 thyroid cancer cells were used as a model.

[3] = tested on: CCDC6-RET expressing TPC-1 thyroid cancer cells; experiment: Cell viability in TPC-1 cells; assay type: cell-based, human; details: 72 hr (FIG. 2A, FIG. 7)
Description: as §1, §2, §5

[4] = tested on: cancer cells driven by oncogenic ROS1 fusion; experiment: Viability of cancer cells driven by oncogenic ROS1 fusion (FIGS. 3-4); assay type: cell-based; details: FIG. 3, FIG. 4
Description: as §2

ROS1 fusion protein = experiment: Degradation of ROS1 fusion protein (FIG. 5); assay type: cell-based
Source text: as §4

CC(C)c1cc(-c2nnc(O)n2-c2ccc3c(ccn3C)c2)c(O)cc1O [ganetespib, 3-(2,4-DIHYDROXY-5- ISOPROPYL-PHENYL)-4-(1- METHYL-INDOL-5-YL)-5- HYDROXY-[1,2,4] TRIAZOLE (GANETESPIB)]
IC50 [1]: 0.017 µM
cells killed by single agent [1]: approximately 50%
phosphorylation of ROS [2]: significant dephosphorylation of ROS
activity (phosphorylation) of CD74-ROS (CD74-ROS): effectively reduces the activity
activity (phosphorylation) of FIG-ROS (FIG-ROS): effectively reduces the activity
ERK activity (CCDC6-RET): deactivation of ERK
PARP cleavage (CCDC6-RET): cleavage of the pro-apoptotic protein PARP
degradation of total and phosphorylated CCDC6-RET (CCDC6-RET): potently induced the degradation
cell death / viability of TPC-1 cells [3]: resulting in cell death; also recorded: significantly inhibited the viability
viability of cancer cells driven by oncogenic ROS1 fusion [4]: inhibited viability; also recorded: significantly inhibited the viability of more cancer cells
degradation of ROS1 fusion protein (ROS1 fusion protein): leads to degradation of ROS1 fusion protein

C[C@@H](Oc1cc(-c2cnn(C3CCNCC3)c2)cnc1N)c1c(Cl)ccc(F)c1Cl [crizotinib, reference compound]
IC50 [1]: 1.03 µM
cells killed by single agent [1]: approximately 50%
viability of cancer cells driven by oncogenic ROS1 fusion [4]: inhibited viability
